Laboratory results from patent US20150335624A1, “COMPOSITIONS AND METHODS FOR USING HUPERZINE AND ANALOGS THEREOF” (INSERO HEALTH INC., priority 2013, published 2015).
Several values for one entry are separate records, joined by “and”; a condition that tells them apart may be missing. Equal entries are not always repeated.

Columns and labels:
Format in all cases: in vivo, human
[1] = system: MCP-1; assay: Phase 1 clinical trial, marker MCP-1
Protocol: (§1) A phase 1 clinical trial was conducted with huperzine A. The primary aim of the study was to conduct a proof-of-principle assessment of the safety and tolerability and early stage pharmacokinetics of dietary supplement Huperzine A up to 6.4 mg/day as add-on, open-label therapy in 8 subjects with drug-resistant epilepsy. The hypothesis was that Huperzine A in 8 subjects with drug-resistant epilepsy as add-on; open-label therapy would be well tolerated when titrated from 1.6 mg/day up to 6.4 mg/day. The secondary aim was to acquire preliminary data on the parasympathetic effect of Huperzine A on cardiac function.
(§2) The trial was a single-center, in-patient, open-label, dose-escalation study conducted at one site. This study would enroll up to 10 adults (≧18 years to 65 years) to obtain 8 randomized subjects with drug-resistant epilepsy that were not well controlled with 1 to 3 concomitant anti-epileptic drugs (AEDs).
(§3) Eight subjects with drug-resistant epilepsy were provided huperzine A. Six subjects completed the study. Doses were varied as in Table A. Doses were six hours apart. Subjects 1-3 began dosing at 18:00, subjects 4-8 began dosing at 12:00.
(§4) Table B provides biomarker test results. Baseline, peak and change values represented as mean±the standard error of the mean (SEM). Statistical data is included for all subjects excluding subject #7 because that subject was on a conflicting medication. Peak represents peak plasma level or, if unavailable, the nearest values for all values except cardiological markers where peak represents Day 2. The p-values were calculated from one-sided paired t tests.
Monocyte chemotactic protein-1 (MCP-1) as a marker is implicated in pathogeneses of several diseases characterized by monocytic infiltrates. MCP-1 is involved in the neuroinflammatory processes that take place in the various diseases of the central nervous system, which are characterized by neuronal degeneration. MCP-1 expression in glial cells is increased in epilepsy, brain ischemia, Alzheimer's disease, some encephalomyelitis, and traumatic brain injury.

[2] = system: IL-6; assay: Phase 1 clinical trial, inflammatory marker IL-6 (Labcorp, different test center); conditions: excluding #7
Protocol: as §1, §2, §3, §4

[3] = Phase 1 clinical trial, peak plasma level of huperzine A
Protocol: as §1, §2
The study drug was supplied as 0.200 mg tablets and dispensed by the study site's pharmacy. Huperzine A tablets derived from Huperzia serrata were sourced from a commercially available supplier in the United States.
Randomly chosen tablets of the supplied trial medication, as well as a composite have been assessed for purity by an independent laboratory using standard analytic techniques (HPLC) and found to contain between 0.145 mg and 0.166 mg of Huperzine A per tablet. Subject dosing was based on the label potency of the tablets (i.e. 0.200 mg). Tablets were randomly assigned to each subject in a dosing bottle container containing 120 tablets per subject. Each bottle was labeled with a study identifier. subject ID, dose of each tablet, dosing instructions, expiration date, and lot number.
as §3

[4] = system: TNF-alpha; assay: Phase 1 clinical trial, inflammatory marker TNF-alpha; conditions: excluding #7
Protocol: as §1, §2, §3, §4

[5] = Phase 1 clinical trial, renal marker serum creatinine
Protocol: as §1, §2, §3, §4

[6] = system: IL-10; assay: Phase 1 clinical trial, inflammatory marker IL-10; conditions: excluding #7
Protocol: as §1, §2, §3, §4

[7] = Phase 1 clinical trial, renal marker eGFR (creatinine clearance rate); conditions: excluding #7
Protocol: as §1, §2, §3, §4

[8] = system: IL-1 beta; assay: Phase 1 clinical trial, inflammatory marker IL-1 beta; conditions: excluding #7
Protocol: as §1, §2, §3, §4

[9] = system: CRP; assay: Phase 1 clinical trial, cardiologic marker CRP
Protocol: as §1, §2, §3, §4

[10] = system: IL-6; assay: Phase 1 clinical trial, inflammatory marker IL-6 (IITR1); conditions: excluding #7
Protocol: as §1, §2, §3, §4

[11] = Phase 1 clinical trial, ECG recording of cardiac function (heart rate, HRV, TWA, QT, VPB, VT); conditions: for T-wave alternans (TWA): all leads; for TWA elevated: in the normal range
Protocol: as §1, §2, §3
Heart rate, heart rate variability. T-wave alternans, QT interval, ventricular premature beats, and ventricular tachycardia were studied in all 8 subjects enrolled in the study. […] This individual experienced transient peaks in heart rate and a few ventricular premature beats, probably due to an emesis-related surge in sympathetic nerve activity. […] ECG recordings show a transient disconnect in subjects one.

[12] = system: IL-17; assay: Phase 1 clinical trial, inflammatory marker IL-17; conditions: excluding #7
Protocol: as §1, §2, §3, §4

[13] = peak vs baseline, mean ± SEM, excluding #7
[14] = 8 subjects, full recording period
[15] = 8 subjects, full recording period, listed as huperzine

Compound: C/C=C1\[C@H]2C=C(C)C[C@]1(N)c1ccc(=O)[nH]c1C2 [Huperzine A, (1R,9,13E)-1-amino-13-ethylidene-11-methyl-6-azatricyclo[7.3.1.0^2,7]trideca-2(7),3,10-trien-5-one]
- decrease in levels of MCP-1 ([1]; from an average of 175.2±43.5 pg/mL): 15%
- MCP-1 Peak ([1]; mean ± SEM, excluding #7, at peak plasma level, baseline 175.2 ± 43.5): 148.9 pg/mL and 148.9 ± 26.3 pg/mL
- MCP-1 % Change ([1]; peak vs baseline, excluding #7): −15%
- MCP-1 Change [1, 13]: -26.3 ± 28.6 pg/mL
- IL-6 (Labcorp) Peak ([2]; mean ± SEM, at peak plasma level, baseline 1.8 ± 1.2): 4.2 ± 2.4 pg/mL
- IL-6 (Labcorp) % Change ([2]; peak vs baseline): 133%
- IL-6 (Labcorp) Change ([2]; peak vs baseline, mean ± SEM): 2.4 ± 2.6 pg/mL
- Peak Plasma ([3]; Subject 1, oral tablets, 4 doses 0.40-0.80 mg six hours apart): 2.6 ng/mL
- Peak Plasma ([3]; Subject 2, 3 doses 0.40-0.80 mg six hours apart): 6.7 ng/mL
- Peak Plasma ([3]; Subject 3, 12 doses 0.40-0.80 mg six hours apart): 9.6 ng/mL
- Peak Plasma ([3]; Subject 4, 11 doses 0.40-0.60 mg six hours apart): 11.8 ng/mL
- Peak Plasma ([3]; Subject 5, 13 doses 0.40-0.80 mg six hours apart): 12.9 ng/mL
- Peak Plasma ([3]; Subject 6, 13 doses 0.40-0.60 mg six hours apart): 15.9 ng/mL
- Peak Plasma ([3]; Subject 7, 13 doses 0.40-0.60 mg six hours apart): 13.2 ng/mL
- TNF-alpha Peak ([4]; mean ± SEM, at peak plasma level, baseline 1.6 ± 0.4): 1.3 ± 0.4 pg/mL
- TNF-alpha % Change ([4]; peak vs baseline): −15%
- TNF-alpha Change ([4]; peak vs baseline, mean ± SEM): -0.2 ± 0.1 pg/mL
- decrease in serum creatinine ([5]; from an average of 0.9 mg/dL, p-value 0.02): 18%
- Serum creatine Peak ([5]; mean ± SEM, excluding #7, at peak plasma level, baseline 0.9 ± 0.3): 0.7 ± 0.1 mg/dL
- Serum creatine % Change ([5]; peak vs baseline, excluding #7): −18%
- Serum creatine Change [5, 13]: -0.2 ± 0.2 mg/dL
- IL-10 Peak ([6]; mean ± SEM, at peak plasma level, baseline 7.3 ± 2.7): 8.8 ± 1.5 pg/mL
- IL-10 % Change ([6]; peak vs baseline): 21%
- IL-10 Change ([6]; peak vs baseline, mean ± SEM): 1.6 ± 1.6 pg/mL
- eGFR (flow rate) Peak ([7]; mean ± SEM, at peak plasma level, baseline 98.3 ± 23.5): 107.6 ± 13.4 mL/min/1.73
- eGFR (flow rate) % Change ([7]; peak vs baseline): 9%
- eGFR (flow rate) Change ([7]; peak vs baseline, mean ± SEM): 9.3 ± 12.7 mL/min/1.73
- IL-1 beta Peak ([8]; mean ± SEM, at peak plasma level, baseline 23.9 ± 12.4): 30.0 ± 9.8 pg/mL
- IL-1 beta % Change ([8]; peak vs baseline): 26%
- IL-1 beta Change ([8]; peak vs baseline, mean ± SEM): 6.1 ± 5.2 pg/mL
- decrease in CRP ([9]; from an average of 2.6±3.0 mg/L, p-value 0.02): 29%
- CRP Peak ([9]; mean ± SEM, subjects excluding #7, peak = Day 2, baseline 2.6 ± 3.0): 1.8 ± 2.3 mg/L
- CRP % Change ([9]; peak vs baseline, excluding #7): −29%
- CRP Change [9, 13]: -0.7 ± 0.8 mg/L
- IL-6 (IITR1) Peak ([10]; mean ± SEM, at peak plasma level, baseline 1.3 ± 0.2): 2.8 ± 0.7 pg/mL
- IL-6 (IITR1) % Change ([10]; peak vs baseline): 115%
- IL-6 (IITR1) Change ([10]; peak vs baseline, mean ± SEM): 1.5 ± 1.5 pg/mL
- T-wave alternans (TWA) [11, 14]: generally low in all leads
- T-wave alternans (TWA) [11, 15]: low TWA levels
- QTc interval ([11]; 8 subjects, corrected using Bazett's formula): none of the 8 subjects in the study exhibited an increase in QTc interval
- episodes of ventricular tachycardia ([11]; 8 subjects, entire recording period): no episodes of ventricular tachycardia occurred in any of the 8 subjects
- Heart rate [11, 14]: stable throughout the recordings in all but one subject
- QT interval [11, 14]: unaltered
- ventricular premature beat (VPB) count [11, 14]: low
- Heart rate [11, 15]: 7 of the 8 subjects exhibited stable heart rates
- heart rate variability, low frequency/high frequency (LF/HF) ratio ([11]; 8 subjects, full recording period, normal range about 1 to about 4): stable
- cardiac electrical activity ([11]; after huperzine administration): remains normal
- LF/HF ratio trend ([11]; during the first 6 hours of recording): trend toward lowering of the LF/HF ratio
- TWA elevated ([11]; subject 1007): about 25 μV
- increase in heart rate ([11]; subject only, apparently related to emesis): about 120 beats/min
- TWA elevated ([11]; subject two, during final 120-beat/min heart rate surge): about 30 μV
- IL-17 Peak ([12]; mean ± SEM, at peak plasma level, baseline 35.1 ± 17.7): 36.1 ± 19.2 pg/mL
- IL-17 % Change ([12]; peak vs baseline): 3%
- IL-17 Change ([12]; peak vs baseline, mean ± SEM): 1.0 ± 1.0 pg/mL
